Assay results from patent EP0492277A2, “Cephalosporin derivatives” (F. HOFFMANN-LA ROCHE AG, priority 1990, dated 1992).

Tests used:
Assay in all cases: MIC, Agar Dilution Method
Assay type in all cases: cell-based
E. coli ATCC 25922 = test system: E. coli ATCC 25922
Protocol: (§1) In vitro activity of the compounds of the present invention was measured by the Minimum Inhibitory Concentration (MIC) in micrograms/ml utilizing the Agar Dilution Method, which is well known in the art, against a variety of gram-negative and gram-positive organisms.

Prot. mirabilis 90 = test system: Prot. mirabilis 90
Protocol: as §1

Cit. freundi BS-16 = test system: Cit. freundi BS-16
Protocol: as §1

K. pneumoniae A = test system: K. pneumoniae A
Protocol: as §1

Staph. aureus 67 = test system: Staph. aureus 67
Protocol: as §1

Ser. marcescens SM = test system: Ser. marcescens SM
Protocol: as §1

[1] = test system: Ps. aeruginosa ATCC 27853
Protocol: as §1

Str. faecalis ATCC 29212 = test system: Str. faecalis ATCC 29212
Protocol: as §1

Staph. aureus Smith = test system: Staph. aureus Smith
Protocol: as §1

Str. pneumoniae 6301 = test system: Str. pneumoniae 6301
Protocol: as §1

Enter. cloacae 5699 = test system: Enter. cloacae 5699
Protocol: as §1

Prot. vulgaris ATCC 6380 = test system: Prot. vulgaris ATCC 6380
Protocol: as §1

Staph. aureus 1059B = test system: Staph. aureus 1059B
Protocol: as §1

Prot. vulgaris 1028 BC = test system: Prot. vulgaris 1028 BC
Protocol: as §1

Staph. aureus 753 = test system: Staph. aureus 753
Protocol: as §1

Ps. aeruginosa 765 = test system: Ps. aeruginosa 765
Protocol: as §1

Staph. aureus ATCC 29213 = test system: Staph. aureus ATCC 29213
Protocol: as §1

Enter. cloacae P99 = test system: Enter. cloacae P99
Protocol: as §1

Ps. aeruginosa 8780 = test system: Ps. aeruginosa 8780
Protocol: as §1

E. coli TEM-1 = test system: E. coli TEM-1
Protocol: as §1

Ps. aeruginosa 18SH = test system: Ps. aeruginosa 18SH
Protocol: as §1

Str. pyogenes 4 = test system: Str. pyogenes 4
Protocol: as §1

Ps. aeruginosa 5712 = test system: Ps. aeruginosa 5712
Protocol: as §1

E. coli 257 = test system: E. coli 257
Protocol: as §1

Ser. marcescens 1071 = test system: Ser. marcescens 1071
Protocol: as §1

| Substance | IN VITRO MIC (E. coli ATCC 25922) | IN VITRO MIC (Prot. mirabilis 90) | IN VITRO MIC (Cit. freundi BS-16) | IN VITRO MIC (K. pneumoniae A) | IN VITRO MIC (Staph. aureus 67) | IN VITRO MIC (Ser. marcescens SM) | IN VITRO MIC [1] | IN VITRO MIC (Str. faecalis ATCC 29212) | IN VITRO MIC (Staph. aureus Smith) | IN VITRO MIC (Str. pneumoniae 6301) | IN VITRO MIC (Enter. cloacae 5699) | IN VITRO MIC (Prot. vulgaris ATCC 6380) | IN VITRO MIC (Staph. aureus 1059B) | IN VITRO MIC (Prot. vulgaris 1028 BC) | IN VITRO MIC (Staph. aureus 753) | IN VITRO MIC (Ps. aeruginosa 765) | IN VITRO MIC (Staph. aureus ATCC 29213) | IN VITRO MIC (Enter. cloacae P99) | IN VITRO MIC (Ps. aeruginosa 8780) | IN VITRO MIC (E. coli TEM-1) | also measured |
| --- | --- | --- | --- | --- | --- | --- | --- | --- | --- | --- | --- | --- | --- | --- | --- | --- | --- | --- | --- | --- | --- |
| [6R-[6a,7β(Z)]]-7-[[(2-Amino-4-thiazolyl)[(carboxymethoxy)imino]acetyl]amino]-3-[[4-(3-carboxy-1-cyclopropyl-6-fluoro-1,4-dihydro-4-oxo-7-quinolinyl)-1-piperazinyl]methyl]-8-oxo-5-thia-1-azabicyclo[4.2.0]-oct-2-ene-2-carboxylic acid sodium salt [Compound B] | 0.5 µg/mL | 2 µg/mL | 1 µg/mL | 1 µg/mL | 32 µg/mL | 1 µg/mL | 16 µg/mL | 16 µg/mL | 8 µg/mL | 0.25 µg/mL | 1 µg/mL | 0.25 µg/mL | 2 µg/mL | 1 µg/mL | 8 µg/mL | 8 µg/mL | 8 µg/mL | 0.25 µg/mL | 8 µg/mL | 0.5 µg/mL | IN VITRO MIC (Ps. aeruginosa 18SH): 4 µg/mL; IN VITRO MIC (Str. pyogenes 4): 0.125 µg/mL; IN VITRO MIC (Ps. aeruginosa 5712): 32 µg/mL; IN VITRO MIC (E. coli 257): 0.25 µg/mL; IN VITRO MIC (Ser. marcescens 1071): 2 µg/mL |
| [6R-[6α,7β(Z)]]-7-[[(2-Amino-4-thiazolyl)[(1-carboxyl-1-methylethoxy)imino]acetyl]amino]-3-[[4-(3-carboxy-1-cyclopropyl-6-fluoro-1,4-dihydro-4-oxo-7-quinolinyl)-1-piperazinyl]methyl]-8-oxo 5-thia-1-azabicyclo[4.2.0]-oct-2-ene-2-carboxylic acid sodium salt [Compound A] | 0.25 µg/mL | 2 µg/mL | 0.125 µg/mL | 0.5 µg/mL | 16 µg/mL | 1 µg/mL | 8 µg/mL | 8 µg/mL | 8 µg/mL | 0.25 µg/mL | 1 µg/mL | 0.5 µg/mL | 4 µg/mL | 1 µg/mL | 8 µg/mL | 8 µg/mL | 8 µg/mL | 0.5 µg/mL | 8 µg/mL | 0.5 µg/mL | IN VITRO MIC (Ps. aeruginosa 18SH): 2 µg/mL; IN VITRO MIC (Str. pyogenes 4): 0.25 µg/mL; IN VITRO MIC (Ps. aeruginosa 5712): 16 µg/mL; IN VITRO MIC (E. coli 257): 0.25 µg/mL; IN VITRO MIC (Ser. marcescens 1071): 1 µg/mL |
